Experimental data from US20240279233A1, “MACROCYCLIC TAK1 INHIBITORS” (Aqilion AB, priority 2021, published 2024).
Where two headings read alike, the source gives them in different places.

Target: human recombinant TAK1-TAB1 Kinase (TAK1 (1-303) and TAB1 (437-end)) (Homo sapiens (Human), UniProt O43318)
Experiment: TAK1 biochemical ADP-Glo kinase assay
Conditions: MBP substrate
Experimental: The usefulness of the example compounds of the invention as TAK1 inhibitors was evaluated in a biochemical ADP-Glo kinase assay. Assay kits from Promega Corporation V4089 were used according to manufacturer's instructions and adapted as outlined here. ADP-Glo Kinase Assay kit contains ADP-Glo Reagent, Kinase Detection Reagent, kinase detection buffer, ATP, and ADP. The Kinase Enzyme Systems include human recombinant TAK1-TAB1 Kinase (TAK1 (1-303) and TAB1 (437-end)), Native Swine Myelin Basic Protein (MBP) substrate, 5×kinase reaction buffer, and DTT.
Test compounds were prepared in 1:5 serial dilutions at 8 concentrations in DMSO from 10 mM stock solutions. An additional 20-fold dilution in 1× kinase reaction buffer (see below) was performed, yielding a final dilution series in kinase buffer with 5% DMSO (final concentration in assay from 20 μM to 0.26 nM, 1% DMSO). As controls, Takinib was prepared as positive control (3 μM final in assay), and DMSO without inhibitor served as negative control, at a final assay concentration of DMSO of 1%.
One μl of compound solution in 5% DMSO was added to each well in a 384 well microtiter plate (OptiPlate #6007290). Two μl TAK1-TAB1 (7.5 ng/μl) in lxkinase reaction buffer ([…] Tris base pH 7.5, 20 mM MgCl2, 50 μM DTT, 0.1 mg/ml BSA) was added and pre-incubated 10 min before adding 2 μl of a mixture of MBP substrate and ATP (0.25 μg/μL MBP/25 μM ATP or 0.25 μg/μL MBP/2.5 mM ATP) in 1× kinase reaction buffer (as above). The plate was subsequently incubated at room temperature for 1 hour. Then 5 μl ADP-Glo™ reagent from ADP-Glo™ kit (as above) was added and incubated for 40 min to stop the reaction and consume remaining ATP. Ten μl kinase detection substrate (dissolved in kinase detection buffer, both from ADP-Glo™ kit as above) was then added to convert ADP to ATP and detect ATP with luciferase/luciferin. The plate was incubated for 30 minutes at room temperature in dark before reading luminescence on an Envision (PerkinElmer) reader.
IC50 values of compounds of the invention were determined by the non-linear regression analysis of dose response curves.

[1] = 1 mM ATP, read-out: TAK1 Mean IC50 (nM) @ 1 mM ATP
[2] = 10 μM ATP, read-out: TAK1 Mean IC50 (nM) @ 10 μM ATP

human recombinant TAK1-TAB1 Kinase (TAK1 (1-303) and TAB1 (437-end)), sequence (O43318 other isoform, or with tags, fused parts or gaps): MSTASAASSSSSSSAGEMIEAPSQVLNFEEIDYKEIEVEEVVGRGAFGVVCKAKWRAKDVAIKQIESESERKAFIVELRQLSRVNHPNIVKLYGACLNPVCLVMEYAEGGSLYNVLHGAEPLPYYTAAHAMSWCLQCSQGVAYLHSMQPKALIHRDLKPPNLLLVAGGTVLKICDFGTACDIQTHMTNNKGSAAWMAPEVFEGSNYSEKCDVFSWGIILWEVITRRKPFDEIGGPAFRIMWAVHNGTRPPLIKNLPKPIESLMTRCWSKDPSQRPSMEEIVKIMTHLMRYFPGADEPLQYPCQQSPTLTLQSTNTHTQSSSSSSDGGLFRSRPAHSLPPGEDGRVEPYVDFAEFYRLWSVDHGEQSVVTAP

IC50 [1] [nM] | IC50 [2] [nM] | Structure (SMILES)
15 | – | CC1CCCCNC(=O)c2cccc(c2)C(=O)/N=C2\Nc3cccc(N4CCN(C5CC5)C4=O)c3N21 (single isomer, unassigned) [Example 141, (E)-1^7-(3-cyclopropyl-2-oxoimidazolidin-1-yl)-11-methyl-1^2,1^3-dihydro-1H-2,6-diaza-1(2,1)-benzo[d]imidazola-4(1,3)-benzenacycloundecaphane-3,5-dione]
– | 7 | CC1CCCCNC(=O)c2cccc(c2)C(=O)/N=C2\Nc3cccc(C(=O)N4CC5(COC5)C4)c3N21 (centres unmarked) [Example 42, (E)-11-methyl-1^7-(2-oxa-6-azaspiro[3.3]heptane-6-carbonyl)-1^2,1^3-dihydro-1^1H-2,6-diaza-1(2,1)-benzo[d]imidazola-4(1,3)-benzenacycloundecaphane-3,5-dione]
4 | – | C[C@H]1CCCCNC(=O)c2cccc(c2)C(=O)/N=C2\Nc3cccc(C(=O)N4CC(OC5CC5)C4)c3N21 [Example 107, (S,E)-1^7-(3-cyclopropoxyazetidine-1-carbonyl)-11-methyl-1^2,1^3-dihydro-1^1H-2,6-diaza-1(2,1)-benzo[d]imidazola-4(1,3)-benzenacycloundecaphane-3,5-dione]
– | 4 | CC1CCCCNC(=O)c2cccc(c2)C(=O)/N=C2\Nc3cccc(C4CCCNC4=O)c3N21 (single isomer, unassigned) [Example 59, (E)-11-methyl-1^7-(2-oxopiperidin-3-yl)-1^2,1^3-dihydro-1^1H-2,6-diaza-1(2,1)-benzo[d]imidazola-4(1,3)-benzenacycloundecaphane-3,5-dione]
3 | – | C[C@H]1CCCCNC(=O)c2cccc(c2)C(=O)/N=C2\Nc3cccc(C(=O)N4CC5(CCCO5)C4)c3N21 [Example 116, (S,E)-11-methyl-1^7-(5-oxa-2-azaspiro[3.4]octane-2-carbonyl)-1^2,1^3-dihydro-1^1H-2,6-diaza-1(2,1)-benzo[d]imidazola-4(1,3)-benzenacycloundecaphane-3,5-dione]
– | 5 | CCC1CCCCNC(=O)c2cccc(c2)C(=O)Nc2nc3cccc(C(=O)N(C)C)c3n21 (single isomer, unassigned) [Example 67, (E)-11-ethyl-N,N-dimethyl-3,5-dioxo-1^2,1^3-dihydro-1^1H-2,6-diaza-1(2,1)-benzo[d]imidazola-4(1,3)-benzenacycloundecaphane-1^7-carboxamide]
8 | 7 | CC1CCCCNC(=O)c2cccc(c2)C(=O)/N=C2\Nc3cccc(N4CCN(C5CC5)C4=O)c3N21 (single isomer, unassigned) [Example 142, (E)-1^7-(3-cyclopropyl-2-oxoimidazolidin-1-yl)-11-methyl-1^2,1^3-dihydro-1H-2,6-diaza-1(2,1)-benzo[d]imidazola-4(1,3)-benzenacycloundecaphane-3,5-dione]
7 | 5 | C[C@H]1CCCCNC(=O)c2cccc(c2)C(=O)/N=C2\Nc3cc(CN4CCOCC4)cc(C(=O)N(C)C)c3N21 [Example 125, (S,E)-N,N,11-trimethyl-1^5-(morpholinomethyl)-3,5-dioxo-1^2,1^3-dihydro-1^1H-2,6-diaza-1(2,1)-benzo[d]imidazola-4(1,3)-benzenacycloundecaphane-1^7-carboxamide]
– | 6 | CC1CCCCNC(=O)c2cccc(c2)C(=O)/N=C2\Nc3cccc(C(=O)N4CC[C@@H](F)C4)c3N21 (single isomer, unassigned) [Example 93]
– | 6 | CC1CCCCNC(=O)c2cccc(c2)C(=O)/N=C2\Nc3cccc(C(=O)N4CC[C@@H](F)C4)c3N21 (single isomer, unassigned) [Example 92]
114 | – | CC1CCCCNC(=O)c2nc(cs2)C(=O)/N=C2\Nc3cccc(C(=O)N(C)C)c3N21 (single isomer, unassigned) [Example 109, (1^2Z,4^2E)-N,N,5-trimethyl-2,11-dioxo-4^2,4^3-dihydro-4^1H-3,10-diaza-1(4,2)-thiazola-4(2,1)-benzo[d]imidazolacycloundecaphane-4^7-carboxamide]
17 | – | CC1CCCCNC(=O)c2cccc(c2)C(=O)/N=C2\Nc3cccc(-c4ncnn4C(F)F)c3N21 (single isomer, unassigned) [Example 139, (E)-1^7-(1-(difluoromethyl)-1H-1,2,4-triazol-5-yl)-11-methyl-1^2,1^3-dihydro-1^1H-2,6-diaza-1(2,1)-benzo[d]imidazola-4(1,3)-benzenacycloundecaphane-3,5-dione]
– | 3 | CC1CCCCNC(=O)c2cccc(c2)C(=O)/N=C2\Nc3cccc(C(=O)N4CC(F)(F)C4)c3N21 (centres unmarked) [Example 40, (E)-1^7-(3,3-difluoroazetidine-1-carbonyl)-11-methyl-1^2,1^3-dihydro-1^1H-2,6-diaza-1(2,1)-benzo[d]imidazola-4(1,3)-benzenacycloundecaphane-3,5-dione]
– | 4 | COC(=O)CN(C)C(=O)c1cccc2c1N1/C(=N/C(=O)c3cccc(c3)C(=O)NCCCCC1C)N2 (centres unmarked) [Example 38, methyl (E)-N-methyl-N-(11-methyl-3,5-dioxo-1^2,1^3-dihydro-1^1H-2,6-diaza-1(2,1)-benzo[d]imidazola-4(1,3)-benzenacycloundecaphane-1^7-carbonyl)glycinate]
12 | 10 | Cc1nnc(-c2cccc3c2N2/C(=N/C(=O)c4cccc(c4)C(=O)NCCCCC2C)N3)o1 (single isomer, unassigned) [Example 133, (E)-11-methyl-1^7-(5-methyl-1,3,4-oxadiazol-2-yl)-1^2,1^3-dihydro-1^1H-2,6-diaza-1(2,1)-benzo[d]imidazola-4(1,3)-benzenacycloundecaphane-3,5-dione]
9 | 7 | C[C@H]1CCCCNC(=O)c2cccc(c2)C(=O)/N=C2\Nc3cc(CN4CCN(C)CC4)cc(C(=O)N(C)C)c3N21 [Example 124, (S,E)-N,N,11-trimethyl-1^5-((4-methylpiperazin-1-yl)methyl)-3,5-dioxo-1^2,1^3-dihydro-1^1H-2,6-diaza-1(2,1)-benzo[d]imidazola-4(1,3)-benzenacycloundecaphane-1^7-carboxamide]
12 | 4 | C[C@H]1CCCCNC(=O)c2cccc(c2)C(=O)/N=C2\Nc3ccnc(N4CCC(F)C4=O)c3N21 (single isomer, unassigned) [Example 126]
– | 258 | C[C@H]1CCCCNC(=O)c2cccc(c2)C(=O)Nc2nc3ccc(Cl)c(C(=O)N(C)C)c3n21 (single isomer, unassigned) [Example 53]
– | 6 | COC1CN(C(=O)c2cccc3c2N2/C(=N/C(=O)c4cccc(c4)C(=O)NCCCCC2C)N3)C1 (single isomer, unassigned) [Example 81, (E)-1^7-(3-methoxyazetidine-1-carbonyl)-11-methyl-1^2,1^3-dihydro-1^1H-2,6-diaza-1(2,1)-benzo[d]imidazola-4(1,3)-benzenacycloundecaphane-3,5-dione]
10 | – | C[C@H]1CCCCNC(=O)c2cccc(c2)C(=O)/N=C2\Nc3cccc(C(=O)N4CC5(COC5)C4)c3N21 [Example 114, (S,E)-11-methyl-1^7-(2-oxa-6-azaspiro[3.3]heptane-6-carbonyl)-1^2,1^3-dihydro-1^1H-2,6-diaza-1(2,1)-benzo[d]imidazola-4(1,3)-benzenacycloundecaphane-3,5-dione]
27 | 7 | C[C@H]1CCCCNC(=O)c2cccc(c2)C(=O)/N=C2\Nc3ccnc(N4CCN(C)C4=O)c3N21 [Example 130, (S,E)-11-methyl-1^4-(3-methyl-2-oxoimidazolidin-1-yl)-1^2,1^3-dihydro-1^1H-2,6-diaza-1(2,3)-imidazo[4,5-c]pyridina-4(1,3)-benzenacycloundecaphane-3,5-dione]
– | 5 | CC1CCCCNC(=O)c2cccc(c2)C(=O)/N=C2\Nc3cccc(C4CCCNC4=O)c3N21 (single isomer, unassigned) [Example 60, (E)-11-methyl-1^7-(2-oxopiperidin-3-yl)-1^2,1^3-dihydro-1^1H-2,6-diaza-1(2,1)-benzo[d]imidazola-4(1,3)-benzenacycloundecaphane-3,5-dione]
– | 5 | CC1CCCCNC(=O)c2cccc(c2)C(=O)Nc2nc3cccc(-c4ccc[nH]c4=O)c3n21 (single isomer, unassigned) [Example 35, (E)-11-methyl-1^7-(2-oxo-1,2-dihydropyridin-3-yl)-1^2,1^3-dihydro-1^1H-2,6-diaza-1(2,1)-benzo[d]imidazola-4(1,3)-benzenacycloundecaphane-3,5-dione]
